One compound from patent US7053113B2, “Mannich base prodrugs of 3-(pyrrol-2-yl-methylidene)-2-indolinone derivatives” (Sugen, Inc., priority 2000, dated 2006) can be followed below.

Data set [1] in a line: Plasma Stability Test: conversion of prodrug to drug after IV administration to dogs. Type of data set: in vivo. Conditions: IV at 2 mg/mL, HPLC analysis of blood plasma for 4 hours following dosing. As for the experimental part:
The prodrug (3Z)-3-[(3,5-dimethyl-1H-pyrrol-2-yl)-methylidene]-1-(1-pyrrolidinylmethyl)-1,3-dihydro-2H-indol-2-one was administered IV at 2 mg/mL to dogs. Levels of both prodrug and drug (3(Z)-3-[(3,5-dimethyl-1H-pyrrol-2-yl)-methylidene]-1,3-dihydro-2H-indol-2-one) were followed by HPLC analysis of blood plasma for 4 hours following dosing.

Data set [2] is described as follows: Aqueous solubility of the prodrug compared with the parent compound. Type of data set: physicochemical. Conditions: compared with parent compound (II).

For the compound `Cc1cc(C)c(/C=C2\C(=O)N(CN3CCCC3)c3ccccc32)[nH]1` [Example 2, (3Z)-3-[(3,5-dimethyl-1H-pyrrol-2-yl)-methylidene]-1-(1-pyrrolidinylmethyl)-1,3-dihydro-2H-indol-2-one], the “prodrug converted into drug (area under the curve of drug concentration vs time)” value in data set [1] came to 80%. Besides, the “aqueous solubility over the parent compound” value in data set [2] is given as “increased aqueous solubility”.
